Earlier results on 68 compounds are cited in Sander's compilation of Henry's law constants.

Where “and” joins values, the source holds several entries; their conditions need not be identical. Identical values can stand only once.

The nature of the data set: Henry solubility constant Hcp at 298.15 K (mol/(m3 Pa)). The note with it: cited value.
The mark [1] stands for this setting: reference: Burkholder et al. (2015).
[2] abbreviates: reference: Burkholder et al. (2019).
Where [3] appears, read: reference: Fogg and Sangster (2003).
Where [4] appears, read: reference: Sander et al. (2006).
Where [5] appears, read: reference: Sander et al. (2011).
Setting [6] is: reference: Mackay et al. (1995).
Setting [7] is: reference: Barcelo and Hennion (1997).
The mark [8] stands for this setting: reference: Mackay et al. (1992b).

For `CCCO` [1-propanol], the “Henry solubility constant Hcp” value was 1.5 (reference: Brockbank (2013)); 1.4 under setting [1]; 1.4 under setting [2]; 1.4 (reference: Dohnal et al. (2006)); 1.4 under setting [3]; 1.3 under setting [4]. Moreover, under setting [5], the “Henry solubility constant Hcp” value was 1.4.
In the case of `O=NN(c1ccccc1)c1ccccc1` [N-nitrosodiphenylamine], the “Henry solubility constant Hcp” value under setting [6] is 0.015.
On to `C=CCCCCCC` [1-octene], for which the “Henry solubility constant Hcp” value (reference: Brockbank (2013)) was 1.6e-05.
`CCCCCCc1ccccc1` [hexylbenzene]: under “reference: Brockbank (2013)”, the “Henry solubility constant Hcp” value is 0.0004.
`O=Cc1ccccc1` [benzaldehyde]: the “Henry solubility constant Hcp” value was 0.4 (reference: Brockbank (2013)); 0.36 (reference: Gaffney and Senum (1984)).
On to `COC(=O)N(OC)c1ccccc1COc1ccn(-c2ccc(Cl)cc2)n1` [pyraclostrobine], for which the “Henry solubility constant Hcp” value (reference: MacBean (2012b)) was 190000.
Turning to `COc1cc(C=O)ccc1O` [vanillin], the “Henry solubility constant Hcp” value (reference: Brockbank (2013)) is 1700.
For the compound `CC(=O)Oc1ccccc1` [phenyl ethanoate], the “Henry solubility constant Hcp” value (reference: Brockbank (2013)) was 1.3.
Turning to `c1ccc2cc3c(cc2c1)-c1cccc2cccc-3c12` [benzo[k]fluoranthene], under “reference: Goldstein (1982)”, the “Henry solubility constant Hcp” value was 0.0096.
Take `ClC1=C(Cl)[C@]2(Cl)C3C(Cl)C(Cl)CC3[C@@]1(Cl)C2(Cl)Cl` (stereo partly drawn) [chlordane]: under setting [7], the “Henry solubility constant Hcp” value was 0.0011.
In the case of `II` [iodine (molecular)], the “Henry solubility constant Hcp” value reads like this: (reference: Berdnikov and Bazhin (1970)) 0.031; (reference: Palmer et al. (1985)) 0.03; (reference: Thompson and Zafiriou (1983)) 0.011.
As to `CCC(C)CC` [3-methylpentane], the “Henry solubility constant Hcp” value (reference: Brockbank (2013)) was 5.9e-06.
As for `CCCC1COC(Cn2cncn2)(c2ccc(Cl)cc2Cl)O1` (stereo not drawn) [propiconazole], the “Henry solubility constant Hcp” value under setting [7] is 24.
`C=CCCCCC` [1-heptene]: the “Henry solubility constant Hcp” value (reference: Brockbank (2013)) was 2e-05.
In the case of `CCCCCCOC(C)=O` [hexyl ethanoate], the “Henry solubility constant Hcp” value (reference: Brockbank (2013)) was 0.02.
On to `CCCN(CCC)C(=O)SCC` [S-ethyl dipropylthiocarbamate], for which the “Henry solubility constant Hcp” value under setting [7] is 0.01.
`CCCOC(C)=O` [propyl ethanoate]: the “Henry solubility constant Hcp” value (reference: Brockbank (2013)) was 0.044.
As for `ClN(Cl)Cl` [nitrogen trichloride], the “Henry solubility constant Hcp” value was 0.00099 under setting [1], 0.00099 under setting [2], 0.00099 under setting [4] and 0.00099 under setting [5].
In the case of `ClCCOCCCl` [1,5-dichloro-3-oxapentane], the “Henry solubility constant Hcp” value by setting is: (reference: Brockbank (2013)) 0.48; (reference: Goldstein (1982)) 0.46 and 0.47; (reference: Harrison et al. (1993)) 0.37.
In the case of `C=Cc1ccccc1` [ethenylbenzene], the “Henry solubility constant Hcp” value (reference: Brockbank (2013)) was 0.0036, the “Henry solubility constant Hcp” value under setting [3] was 0.0038 and the “Henry solubility constant Hcp” value (reference: Goldstein (1982)) is 0.0038.
As for `CCCC(C)C` [2-methylpentane], the “Henry solubility constant Hcp” value (reference: Brockbank (2013)) was 6.4e-06.
For the compound `C[C@@H]1CCCC[C@H]1C` (relative stereo) [trans-1,2-dimethylcyclohexane], the “Henry solubility constant Hcp” value (reference: Brockbank (2013)) is 1.6e-05.
On to `CCCCS` [1-butanethiol], for which the “Henry solubility constant Hcp” value (reference: Brockbank (2013)) is 0.0015.
On to `CCCCC(C)C` [2-methylhexane], for which the “Henry solubility constant Hcp” value (reference: Brockbank (2013)) was 2.9e-06.
Turning to `C=CC` [propene], under “reference: Deno and Berkheimer (1960)”, the “Henry solubility constant Hcp” value was 9.2e-05.
`C=CCCCCCCCC` [1-decene]: the “Henry solubility constant Hcp” value (reference: Brockbank (2013)) was 8.6e-06.
Turning to `O=C(O)CBr` [bromoethanoic acid], the “Henry solubility constant Hcp” value was 1500 under setting [1], 1500 under setting [2] and 1500 under setting [5].
As for `Cc1ccc(C)cc1` [1,4-dimethylbenzene], the “Henry solubility constant Hcp” value is, setting by setting: (reference: Brockbank (2013)) 0.0014; under setting [3], 0.0019; (reference: Foster et al. (1994)) 0.0014.
Take `COC(=O)c1c(Cl)c(Cl)c(C(=O)OC)c(Cl)c1Cl` [dacthal]: for the setting “reference: Muir et al. (2004)”, the “Henry solubility constant Hcp” value was 4.4.
In the case of `[Rn]` [radon], the “Henry solubility constant Hcp” value (reference: Clever (1979b)) is 9.1e-05.
Take `C=CCC#N` [3-butenenitrile]: the “Henry solubility constant Hcp” value (reference: Brockbank (2013)) was 0.2.
Take `C=CCCCCCCCCCCCCC` [1-pentadecene]: the “Henry solubility constant Hcp” value (reference: Brockbank (2013)) was 2.2e-06.
For `CC(C)CC(=O)CC(C)C` [2,6-dimethyl-4-heptanone], the “Henry solubility constant Hcp” value (reference: Brockbank (2013)) is 0.013.
Take `CCCCOCCOCCOCCCC` [diethylene glycol dibutyl ether]: the “Henry solubility constant Hcp” value (reference: Brockbank (2013)) was 2.5.
`C1=CCCCC1` [cyclohexene]: the “Henry solubility constant Hcp” value (reference: Brockbank (2013)) was 0.00029.
For `CCCCCCCC#N` [octanenitrile], the “Henry solubility constant Hcp” value (reference: Plyasunov et al. (2006)) was 0.057.
As for `OCCO` [1,2-ethanediol], the “Henry solubility constant Hcp” value by setting is: under setting [1], 6500; under setting [2], 6500.
As for `CCCCN` [1-butanamine], the “Henry solubility constant Hcp” value by setting is: (reference: Brockbank (2013)) 0.54; under setting [1], 0.56; under setting [2], 0.56.
Take `CCOCC` [diethyl ether]: the “Henry solubility constant Hcp” value reads like this: (reference: Brockbank (2013)) 0.0099; under setting [1], 0.02; under setting [2], 0.0099.
For the compound `c1cc2ccc3ccc4ccc5cccc6c(c1)c2c3c4c56` [benzo[ghi]perylene], the “Henry solubility constant Hcp” value under setting [8] is 13.
Regarding `CCCCCCCCCCCCCCCCO` [1-hexadecanol], where the note is “reference: Abraham (1984)”, the “Henry solubility constant Hcp” value was 0.35.
For the compound `CCCCC(C)O` (stereo not drawn) [2-hexanol], the “Henry solubility constant Hcp” value (reference: Brockbank (2013)) is 0.39.
In the case of `Clc1ccccc1` [chlorobenzene], the “Henry solubility constant Hcp” value was 0.0026 (reference: Brockbank (2013)) and 0.0025 (reference: Goldstein (1982)).
In the case of `CCCCCCO` [1-hexanol], under “reference: Brockbank (2013)”, the “Henry solubility constant Hcp” value was 0.76.
Regarding `CN(C)N=O` [N-nitrosodimethylamine], the “Henry solubility constant Hcp” value is 3.9 under setting [1], 3.9 under setting [2] and 0.3 under setting [6].
Take `CCNc1nc(NC(C)C)nc(SC)n1` [ametryn]: the “Henry solubility constant Hcp” value under setting [7] was 82.
As for `CCCCCCN` [1-hexanamine], the “Henry solubility constant Hcp” value (reference: Brockbank (2013)) was 0.35.
For `Brc1ccc(Br)cc1` [1,4-dibromobenzene], the “Henry solubility constant Hcp” value (reference: Kuramochi et al. (2004)) was 0.011.
For the compound `ClCc1ccccc1` [(chloromethyl)-benzene], the “Henry solubility constant Hcp” value (reference: Brockbank (2013)) was 0.022.
With `ClC1=C(Cl)C(Cl)(Cl)C(Cl)=C1Cl` [hexachlorocyclopentadiene], the “Henry solubility constant Hcp” value (reference: Goldstein (1982)) is 0.0006.
As to `O=C(O)CF` [fluoroethanoic acid], the “Henry solubility constant Hcp” value by setting is: under setting [1], 800; under setting [2], 800; under setting [5], 800.
For `Cc1cccc(C)c1C` [1,2,3-trimethylbenzene], the “Henry solubility constant Hcp” value (reference: Brockbank (2013)) is 0.0024 and the “Henry solubility constant Hcp” value under setting [3] is 0.0027.
For the compound `CCCCCCCc1ccccc1` [heptylbenzene], the “Henry solubility constant Hcp” value (reference: Brockbank (2013)) is 0.00027.
`CCCCC(C)=O` [2-hexanone]: the “Henry solubility constant Hcp” value runs as follows: (reference: Brockbank (2013)) 0.11; (reference: Howard (1993)) 0.1.
With `CN(C)C(=S)SSC(=S)N(C)C` [thiram], the “Henry solubility constant Hcp” value (reference: MacBean (2012b)) was 30.
Take `CC(C1CC1)C(O)(Cn1cncn1)c1ccc(Cl)cc1` (stereo not drawn) [cyproconazole]: the “Henry solubility constant Hcp” value under setting [7] is 130.
Regarding `O=C(O)C1(C(=O)Nc2ccc(Cl)cc2Cl)CC1` [cyclanilide], the “Henry solubility constant Hcp” value (reference: MacBean (2012b)) was 14000.
Consider `S=C([S-])NCCNC(=S)[S-].[Zn+2]` [zineb], for which, for the setting “reference: MacBean (2012b)”, the “Henry solubility constant Hcp” value was more than 3700.
As for `Cc1ccc(Br)cc1` [1-bromo-4-methylbenzene], the “Henry solubility constant Hcp” value (reference: Brockbank (2013)) is 0.0036.
Turning to `C1CCCCC1` [cyclohexane], the “Henry solubility constant Hcp” value was 5.1e-05 (reference: Brockbank (2013)) and 6.2e-05 (reference: Goldstein (1982)).
In the case of `COC[C@H](C)N(C(=O)CCl)c1c(C)csc1C` [dimethenamid-p], the “Henry solubility constant Hcp” value (reference: MacBean (2012b)) was 2100.
Take `CCOC=O` [ethyl methanoate]: the “Henry solubility constant Hcp” value by setting is: (reference: Brockbank (2013)) 0.033; under setting [1], 0.034; under setting [2], 0.034; under setting [5], 0.034.
As for `CCOP(=S)(OCC)Oc1ccc([N+](=O)[O-])cc1` [parathion], the “Henry solubility constant Hcp” value under setting [7] is 0.8 and the “Henry solubility constant Hcp” value (reference: MacBean (2012b)) was 33.
For `c1ccc2c(c1)-c1cccc3c1c-2cc1ccccc13` [benzo[b]fluoranthene], the “Henry solubility constant Hcp” value (reference: Brockbank (2013)) is 15.
Consider `CC(=O)OCC(F)(F)F` [2,2,2-trifluoroethyl ethanoate], for which the “Henry solubility constant Hcp” value runs as follows: under setting [1], 0.0055; under setting [2], 0.0055; under setting [5], 0.0055.
Take `CCCCCCCCCc1ccccc1` [nonylbenzene]: for the setting “reference: Brockbank (2013)”, the “Henry solubility constant Hcp” value is 0.00014.
As for `c1cc2cccc3c4cccc5cccc(c(c1)c23)c54` [perylene], the “Henry solubility constant Hcp” value under setting [8] is 330.
Regarding `O=[O+][O-]` [ozone], the “Henry solubility constant Hcp” value is, setting by setting: (reference: Biń (2005)) 7.6e-05; under setting [1], 0.0001; under setting [2], 0.0001; (reference: Perry and Chilton (1973)) 0.00012; under setting [4], 0.0001; under setting [5], 0.0001. In addition, for the setting “reference: Warneck (2003)”, the “Henry solubility constant Hcp” value is 0.00011.
